Assay results reported in patent EP4549575A1 (priority 2023, dated 2025).
Square brackets hold non-standard residues; d marks the D form. Peptide text beside a SMILES is read from it. * marks the point of attachment. hCys = N[C@@H](CCS)C(=O)O; βAla = NCCC(=O)O; CF3 = FC(F)(F)*

These compounds were tested on P. infestans (assay: not given). Conditions: 200 µM; P. infestans mycelium; peptidomimetics.
Type: cell-based

| Compound | PPI (%) ± Std. Dev. |
| --- | --- |
| H2N-βA-RWM-hL-VYRR-CONH2 (H-[βAla]RWMXVYRR-NH2; not fully specified (residue 5); printed as H2N-βA-RWM-hL-VYRR-CONH2) [LR193, hydrazino-Leu analogue] | 79.35 ± 5.47 (b) % |
| CSCC[C@H](NC(=O)[C@@H](Cc1c[nH]c2ccccc12)NC(=O)[C@@H](CCCNC(=N)N)NC(=O)CCN)C(=O)N[C@@H](CC(C)C)C(=O)N[C@H](C(=O)N[C@H](Cc1ccc(O)cc1)C(=O)N[C@@H](CCCNC(=N)N)C(=O)N[C@@H](CCCNC(=N)N)C(N)=O)C(C)C [LR206, H2N-βA-(D)R-(D)W-MLV-(D)Y-RR-CONH2] (H-[βAla][dR][dW]MLV[dY]RR-NH2) | 81.52 ± 5.47 (b) % |
| CSCC[C@H](NC(=O)[C@@H](Cc1c[nH]c2ccccc12)NC(=O)[C@@H](CCCNC(=N)N)NC(=O)CCN)C(=O)N[C@@H](CC(C)C)C(=O)N[C@H](C(=O)N[C@H](Cc1ccc(O)cc1)C(=O)N[C@@H](CCCNC(=N)N)C(=O)N[C@H](CCCNC(=N)N)C(N)=O)C(C)C [LR202, H2N-βA-(D)R-(D)W-MLV-(D)Y-R-(D)R-CONH2] (H-[βAla][dR][dW]MLV[dY]R[dR]-NH2) | 78.26 ± 0 (b) % |
| CC(C)C[C@H](NC(=O)[C@H](CCSC(F)(F)F)NC(=O)[C@H](Cc1c[nH]c2ccccc12)NC(=O)[C@H](CCCNC(=N)N)NC(=O)CCN)C(=O)N[C@H](C(=O)N[C@@H](Cc1ccc(O)cc1)C(=O)N[C@@H](CCCNC(=N)N)C(=O)N[C@@H](CCCNC(=N)N)C(N)=O)C(C)C [LR131, H2N-βA-RW-MCF3-LVYRR-CONH2] (H-[βAla]RW[hCys](CF3)LVYRR-NH2) | 85.32 ± 5.19 (b) % |

Same assay, conditions: 200 µM; P. infestans mycelium; solid medium; linear vs cyclic peptides (Figure 8)

| Compound | PPI [%] |
| --- | --- |
| CSCC[C@H](NC(=O)[C@H](Cc1c[nH]c2ccccc12)NC(=O)[C@H](CCCNC(=N)N)NC(=O)CCN)C(=O)N[C@@H](CC(C)C)C(=O)N[C@H](C(=O)N[C@@H](Cc1ccc(O)cc1)C(=O)N[C@@H](CCCNC(=N)N)C(=O)N[C@@H](CCCNC(=N)N)C(N)=O)C(C)C [LP20] (H-[βAla]RWMLVYRR-NH2) | 72.78 |
| CC(C)C[C@H](NC(=O)[C@H](CCCNC(=N)N)NC(=O)CNC(=O)CCN)C(=O)N[C@@H](CCCNC(=N)N)C(=O)N[C@@H](Cc1c[nH]c2ccccc12)C(=O)N[C@@H](CC(C)C)C(=O)N[C@@H](CCCNC(=N)N)C(=O)N[C@H](C(N)=O)C(C)C [LP32] (H-[βAla]GRLRWLRV-NH2) | 76.97 |

Same assay, conditions: Ala-scan of Ac-LP20 and CP20-Met-Ala; P. infestans mycelium in vitro

| Compound | PPI (%) mycelium [%] |
| --- | --- |
| CSCC[C@H](NC(=O)[C@H](Cc1c[nH]c2ccccc12)NC(=O)[C@H](CCCNC(=N)N)NC(=O)CCNC(C)=O)C(=O)N[C@@H](CC(C)C)C(=O)N[C@@H](C)C(=O)N[C@@H](Cc1ccc(O)cc1)C(=O)N[C@@H](CCCNC(=N)N)C(=O)N[C@@H](CCCNC(=N)N)C(N)=O [Ac-LP20-Ala6, Ac-βA-RWMLAYRR-CONH2] (Ac-[βAla]RWMLAYRR-NH2) | 62.2 ± 7.54 |
| CSCC[C@H](NC(=O)[C@H](Cc1c[nH]c2ccccc12)NC(=O)[C@H](CCCNC(=N)N)NC(=O)CCNC(C)=O)C(=O)N[C@@H](C)C(=O)N[C@H](C(=O)N[C@@H](Cc1ccc(O)cc1)C(=O)N[C@@H](CCCNC(=N)N)C(=O)N[C@@H](CCCNC(=N)N)C(N)=O)C(C)C [Ac-LP20-Ala5, Ac-βA-RWMAVYRR-CONH2] (Ac-[βAla]RWMAVYRR-NH2) | 70.73 ± 0 |
| CSCC[C@H](NC(=O)[C@H](Cc1c[nH]c2ccccc12)NC(=O)[C@H](C)NC(=O)CCNC(C)=O)C(=O)N[C@@H](CC(C)C)C(=O)N[C@H](C(=O)N[C@@H](Cc1ccc(O)cc1)C(=O)N[C@@H](CCCNC(=N)N)C(=O)N[C@@H](CCCNC(=N)N)C(N)=O)C(C)C [Ac-LP20-Ala2, Ac-βA-AWMLVYRR-CONH2] (Ac-[βAla]AWMLVYRR-NH2) | 38.75 ± 7.72 |
| CSCC[C@H](NC(=O)[C@H](C)NC(=O)[C@H](CCCNC(=N)N)NC(=O)CCNC(C)=O)C(=O)N[C@@H](CC(C)C)C(=O)N[C@H](C(=O)N[C@@H](Cc1ccc(O)cc1)C(=O)N[C@@H](CCCNC(=N)N)C(=O)N[C@@H](CCCNC(=N)N)C(N)=O)C(C)C [Ac-LP20-Ala3, Ac-βA-RAMLVYRR-CONH2] (Ac-[βAla]RAMLVYRR-NH2) | 100 ± 0 |
| CSCC[C@H](NC(=O)[C@H](Cc1c[nH]c2ccccc12)NC(=O)[C@H](CCCNC(=N)N)NC(=O)CCNC(C)=O)C(=O)N[C@@H](CC(C)C)C(=O)N[C@H](C(=O)N[C@@H](Cc1ccc(O)cc1)C(=O)N[C@@H](C)C(=O)N[C@@H](CCCNC(=N)N)C(N)=O)C(C)C [Ac-LP20-Ala8, Ac-βA-RWMLVYAR-CONH2] (Ac-[βAla]RWMLVYAR-NH2) | 10.57 ± 9.49 |

Each compound was assayed on pronase (assay: Stability towards proteolysis (pronase, LC-MS)). Conditions: peptide 200 µM; protease 5 µg/mL; 37°C; pH 7.5.
Type: in vitro ADME, Streptomyces griseus
Description: The evaluation of the stability of CP20 and Ac-LP20 towards proteolysis was tested at a peptide concentration of 200 µM using pronase (commercially available mixture of proteases isolated from the extracellular fluid of Streptomyces griseus, 2.5 µg/mg). Another peptide was added to this analysis, namely LP20 (without N-terminal acetylation), as it is easier to synthesize and to also assess the influence of N-terminal acetylation on the stability of LP20. Each peptide was tested in the presence of the protease (5 µg/mL) at 37°C in a buffer solution (50 mM Tris, 10 mM CaCl2, 150 mM NaCl, 0.05 % (w/v) Brij 35, pH 7.5) and its stability monitored by liquid chromatography coupled to mass spectrometry (LC-MS) at different time intervals (t=0 min, 10 min, 30 min, 1 h, 2 h). To stop enzyme activity, a small amount of the solution (60 µL) was transferred to an HPLC vial containing 6 µL of a 10% TFA solution at these different time points.

| Compound | time of total proteolysis of the peptide [min] |
| --- | --- |
| CSCC[C@H](NC(=O)[C@H](Cc1c[nH]c2ccccc12)NC(=O)[C@H](CCCNC(=N)N)NC(=O)CCN)C(=O)N[C@@H](CC(C)C)C(=O)N[C@H](C(=O)N[C@@H](Cc1ccc(O)cc1)C(=O)N[C@@H](CCCNC(=N)N)C(=O)N[C@@H](CCCNC(=N)N)C(N)=O)C(C)C [LP20] (H-[βAla]RWMLVYRR-NH2) | 10 |
| CC(C)C[C@H](NC(=O)[C@H](CCCNC(=N)N)NC(=O)CNC(=O)CCN)C(=O)N[C@@H](CCCNC(=N)N)C(=O)N[C@@H](Cc1c[nH]c2ccccc12)C(=O)N[C@@H](CC(C)C)C(=O)N[C@@H](CCCNC(=N)N)C(=O)N[C@H](C(N)=O)C(C)C [LP32] (H-[βAla]GRLRWLRV-NH2) | 10 |

Same assay, conditions: peptide 200 µM; protease 5 µg/mL; 37°C; pH 7.5; 0-2 h

| Compound | stability against proteolysis |
| --- | --- |
| CSCC[C@H](NC(=O)[C@H](Cc1c[nH]c2ccccc12)NC(=O)[C@H](CCCNC(=N)N)NC(=O)CCN)C(=O)N[C@@H](CC(C)C)C(=O)N[C@H](C(=O)N[C@@H](Cc1ccc(O)cc1)C(=O)N[C@@H](CCCNC(=N)N)C(=O)N[C@@H](CCCNC(=N)N)C(N)=O)C(C)C [LP20] (H-[βAla]RWMLVYRR-NH2) | Low stability |
| CC(C)C[C@H](NC(=O)[C@H](CCCNC(=N)N)NC(=O)CNC(=O)CCN)C(=O)N[C@@H](CCCNC(=N)N)C(=O)N[C@@H](Cc1c[nH]c2ccccc12)C(=O)N[C@@H](CC(C)C)C(=O)N[C@@H](CCCNC(=N)N)C(=O)N[C@H](C(N)=O)C(C)C [LP32] (H-[βAla]GRLRWLRV-NH2) | low stability |
